Laboratory results published in patent US10350147B2, “Enamel products and methods of use” (The Research Foundation for The State University of New York, priority 2014, dated 2019).
“Also recorded” adds a separate entry of the source.

What was measured:
[1] = test system: oral epithelial keratinocytes of the cell line IMOK; assay: Immunocytochemistry of marker expression in treated IMOK oral epithelial keratinocytes; format: cell-based, mouse
Protocol: In the studies described below, the ameloblast-like cells originated from oral epithelial keratinocytes. We employed the cell line IMOK, an immortalized oral keratinocyte cell line of mouse origin, which was a gift from Dr. Garrett-Sinha (SUNY-Buffalo; Parikh et al., Arc. Oral Biol. 53:1091-1100, 2008).
To thaw frozen IMOK cells, we removed a cryovial containing 10^6 frozen cells from liquid nitrogen storage, immediately placed it into a 37° C. water bath, and gently swirled the vial. When the cells were thawed, we transferred the vial into a laminar flow hood, and added 10 ml of pre-warmed serum free CnT-02 growth medium (CELLNTEC; FPS 1:1000 added to the medium). We centrifuged the cell suspension (˜1000 rpm for 4 minutes) then checked the vial visually for the presence of a complete pellet. The supernatant was aseptically decanted without disturbing the cell pellet, which we gently resuspended in 7 ml of CnT-02 medium. We transferred the resuspended cells into a T25 flask and incubated it at 37° C. with a humidified atmosphere of 5% CO2 The medium was changed every other day, and when the cells became 90% confluent, we split them 1:5 and plated them in a 12-well plate as follows. After discarding the culture medium from the flask, we washed the cells with PBS then added 2 mL of a pre-warmed dissociation reagent (TrypLE; GIBCO), gently shaking the flask to completely cover the cell layer. We transferred the flask to the incubator (37° C., 5% CO2) for 20 minutes, checking under a microscope every 5 minutes for dissociation of the cells. When ≥90% of the cells detached, we added 8 ml of pre-warmed CnT-02 growth medium (CELLNTEC), dispersing it with a pipette over the cell layer surface several times. The cell suspension was transferred to a 50 ml conical tubed and centrifuged (1000 rpm for 4 minutes). We resuspended the cell pellet in 5 ml of pre-warmed serum free CnT-02 growth medium (CELLNTEC) and split the cells in 1:5 ratios. We diluted the cell suspension plate and pipetted the appropriate volume into new 12-well plates, returning the cells to the incubator (37° C., 5% CO2).
We added the vehicle (4 mM HCl+1 mg/mL BSA) to the control side and TGFβ1 (5 ng/mL) to the experimental side and mixed gently. We changed the medium every other day for 10 days. To fix the cells, we aspirated the medium, washed the cells with PBS then fixed them with 100% methanol for 20 minutes. Following fixation, we washed the fixed cells with PBS (×3) and stored them at 4° C.
Immunocytochemistry General Protocol: (1) wash sample slide in 0.15 M PBS (pH 7.2; 4×5 minutes); (2) incubate in 4% Normal Goat Serum (NGS) for 20 minutes (2 ml of 0.15 M PBS+80 μL NGS); (3) incubate with the primary antibody solution (details below; 90 minutes); (4) wash with […] (3 times×10 minutes); (5) block with 4% NGS in 0.15 M PBS (20 minutes); (6) incubate with the secondary antibody (Biotin-SP-conjugated goat anti-rabbit IgG; 60 minutes); (7) wash with 0.15 M PBS (3 times×10 minutes); (8) prepare and incubate in ABC solution (details below; 60 minutes (5 mL of 0.15 M PBS+ABC solution 600 μL); (9) wash with 0.1 M AI buffer (175 mM sodium acetate and 10 mM imidazole, pH 7.2) for 3 times×10 minutes [14.35 g sodium acetate, 0.68 g imidazole in 1000 mL H2O]; (10) carry out DAB reaction for 5-20 minutes, checking often; and (11) wash for 15 minutes in 0.05 M PBS with 0.04% TritonX-100 to stop the reaction.
The primary antibody solution contains 0.15 M PBS with 0.5% Triton X-100; 4% NGS in [0.15 M PBS with 0.5% TritonX-100; and the primary antibody at a 1:500 dilution (2 mL PBS+0.04% Tx 100+80 μL NGS+4 μL primary antibody). The secondary antibody solution contains 0.15 M PBS with 0.5% Triton X-100 and the secondary antibody at a 1:2500 dilution (Goat anti Rabbit IgG) [2 ml PBS+0.04% Tx 100+0.8 uL GαR]. To prepare the ABC (Avidin Biotin Complex) solution, add 1 drop of A, 1 drop of B, to 500 μL of 0.15 M PBS in an Eppendrof tube. […]

developing tooth buds = settings: serotonin added to organotypic cultures; reversed with antagonists; cited from earlier work
[2] = IMOK cells before and after TGFβ1 treatment
[3] = IMOK cells, TGFβ1 5 ng/ml, 10 days, immunocytochemistry

Row | Compound | amelogenin induction at 10 μM serotonin ([1]; 10 μM serotonin for 10 days) | amelogenin expression after serotonin treatment ([1]; IMOK cells pre-treated with TGFβ1, then further treated with serotonin) | effect on tooth development (developing tooth buds) | Oct4 expression [1, 2] | collagen1 expression [1, 2] | amelogenin expression after TGFβ1 treatment alone ([1]; IMOK cells before and after TGFβ1 treatment, no serotonin) | E-cadherin expression [1, 3] | N-cadherin expression [1, 3] | cell morphology after treatment ([1]; IMOK cells, TGFβ1 treatment versus confluent control)
1 | NCCc1c[nH]c2ccc(O)cc12 [serotonin, reference compound] | induction of amelogenin | induction of amelogenin expression; also recorded: express amelogenin | accelerated tooth development | – | – | – | – | – | –
2 | TGFβ1: recombinant human transforming growth factor β1 (R&D system) used as dedifferentiation agent | – | – | – | acquire the expression of Oct4 | lose the expression of collagen1 | do not express amelogenin | lost and reduction in E-cadherin expression and loss of E-cadherin expression | gained; also recorded: increase in N-cadherin expression; also recorded: induced | cells enlarge in size, separate and spread out
